Where only a bound is given, the exact number is not on record here.

One experiment deals with HDAC6 (Homo sapiens (Human), UniProt Q9UBN7). The experiment is described as follows: HDAC6 enzymatic assay. It counts as biochemical. The following applies: read-out: Human HDAC6 IC50. The essentials:
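Human HDAC6 activity was measured in duplicate 50 μl reactions holding 2 ng HDAC6, 10 uM of HDAC substrate and test compound in HDAC assay buffer (50 mM Tris-HCl, pH 7.4, 137 mM NaCl, 2.7 mM KCl, 0.05% Tween 20, 5 μg BSA) with 1% DMSO, for 17 hours at room temperature. HDAC Developer was added for 20 minutes before reading fluorescence at 360/460 nm.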

For another experiment, the target named is HDAC1 (Homo sapiens (Human), UniProt Q13547). The experiment is described as follows: HDAC1 enzymatic assay. The experiment is classed as biochemical. The following applies: read-out: Human HDAC1 IC50. The essentials: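 HDAC1 activity was measured in duplicate 50 μl reactions containing 0.5 ng HDAC1, 10 uM of HDAC substrate, and test compound in buffer (50 mM Tris-HCl, pH 7.4, 137 mM NaCl, 2.7 mM KCl, 0.05% Tween 20, 5 μg BSA) with 1% DMSO, incubated 17 hours at room temperature. HDAC Developer was then added for 20 minutes and fluorescence read at 360/460 nm.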
Sequence of HDAC1 (Q13547 whole entry): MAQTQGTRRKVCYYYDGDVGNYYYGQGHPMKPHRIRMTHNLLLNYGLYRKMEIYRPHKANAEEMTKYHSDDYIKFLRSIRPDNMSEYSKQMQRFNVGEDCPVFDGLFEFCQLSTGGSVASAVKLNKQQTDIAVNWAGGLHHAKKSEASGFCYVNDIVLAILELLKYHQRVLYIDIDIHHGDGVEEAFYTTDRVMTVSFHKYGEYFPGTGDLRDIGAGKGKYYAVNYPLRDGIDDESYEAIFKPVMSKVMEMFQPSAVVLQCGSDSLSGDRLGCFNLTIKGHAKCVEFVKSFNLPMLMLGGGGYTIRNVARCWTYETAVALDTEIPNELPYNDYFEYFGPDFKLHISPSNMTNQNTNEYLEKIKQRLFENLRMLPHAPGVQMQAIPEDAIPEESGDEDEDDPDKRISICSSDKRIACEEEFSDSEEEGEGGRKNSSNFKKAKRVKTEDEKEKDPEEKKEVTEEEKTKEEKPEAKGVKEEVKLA

Sequence of HDAC6 (Q9UBN7 whole entry): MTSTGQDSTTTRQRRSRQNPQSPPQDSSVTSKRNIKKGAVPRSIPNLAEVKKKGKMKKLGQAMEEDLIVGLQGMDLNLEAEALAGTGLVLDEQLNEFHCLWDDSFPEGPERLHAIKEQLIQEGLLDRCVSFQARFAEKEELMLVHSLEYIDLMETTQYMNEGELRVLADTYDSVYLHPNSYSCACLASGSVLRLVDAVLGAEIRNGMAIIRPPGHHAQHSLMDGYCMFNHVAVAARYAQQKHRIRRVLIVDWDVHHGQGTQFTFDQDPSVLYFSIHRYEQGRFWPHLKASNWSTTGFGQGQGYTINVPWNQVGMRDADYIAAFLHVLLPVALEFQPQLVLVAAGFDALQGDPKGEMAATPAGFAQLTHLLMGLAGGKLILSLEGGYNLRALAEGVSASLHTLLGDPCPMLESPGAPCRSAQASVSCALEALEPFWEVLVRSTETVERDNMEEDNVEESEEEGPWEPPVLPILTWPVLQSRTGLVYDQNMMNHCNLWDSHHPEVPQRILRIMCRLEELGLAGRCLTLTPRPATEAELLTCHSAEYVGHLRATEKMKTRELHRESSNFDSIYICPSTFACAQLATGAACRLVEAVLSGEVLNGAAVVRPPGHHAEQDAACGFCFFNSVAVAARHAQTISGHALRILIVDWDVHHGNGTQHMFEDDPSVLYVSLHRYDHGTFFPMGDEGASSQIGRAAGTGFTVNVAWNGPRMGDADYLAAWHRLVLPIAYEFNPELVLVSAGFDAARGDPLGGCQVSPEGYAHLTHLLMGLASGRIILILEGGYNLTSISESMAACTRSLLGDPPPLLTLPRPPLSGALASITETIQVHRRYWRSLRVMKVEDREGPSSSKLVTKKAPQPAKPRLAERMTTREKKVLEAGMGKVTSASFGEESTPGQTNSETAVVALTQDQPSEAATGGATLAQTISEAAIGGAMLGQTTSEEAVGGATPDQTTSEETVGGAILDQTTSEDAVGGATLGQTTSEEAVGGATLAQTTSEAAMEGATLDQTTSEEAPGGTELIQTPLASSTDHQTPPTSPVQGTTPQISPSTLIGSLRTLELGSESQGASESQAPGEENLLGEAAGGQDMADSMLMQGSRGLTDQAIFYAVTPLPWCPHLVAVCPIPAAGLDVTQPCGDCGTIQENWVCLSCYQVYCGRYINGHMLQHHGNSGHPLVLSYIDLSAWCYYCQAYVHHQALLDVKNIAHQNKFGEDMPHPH

Regarding `CC(O)C(Nc1ncc(-c2nnc(C(F)F)o2)cn1)c1ccc(F)cc1F` (stereo not drawn) [Example 93, 1-((5-(5-(difluoromethyl)-1,3,4-oxadiazol-2-yl)pyrimidin-2-yl)amino)-1-(2,4-difluorophenyl)propan-2-ol], the IC50 on HDAC6 was 43 nM; at HDAC1 it was more than 30000 nM.

With `CS(=O)(=O)NCC(Nc1ncc(-c2nnc(C(F)F)o2)cn1)C1CC1` (single isomer, unassigned) [123(−), N-(2-cyclopropyl-2-((5-(5-(difluoromethyl)-1,3,4-oxadiazol-2-yl)pyrimidin-2-yl)amino)ethyl)methanesulfonamide], the IC50 on HDAC6 was 1100 nM; on HDAC1, more than 30000 nM.

Turning to `CS(=O)(=O)N(CC(Nc1ncc(-c2nnc(C(F)F)o2)cn1)c1ccc(OC(F)F)cc1F)CC(F)(F)F` (stereo not drawn) [146(+), N-(2-(4-(difluoromethoxy)-2-fluorophenyl)-2-((5-(5-(difluoromethyl)-1,3,4-oxadiazol-2-yl)pyrimidin-2-yl)amino)ethyl)-N-(2,2,2-trifluoroethyl)methanesulfonamide], the IC50 on HDAC6 was 140 nM; at HDAC1, more than 30000 nM.

For `CS(=O)(=O)N(CC(Nc1ncc(-c2nnc(C(F)F)o2)cn1)c1ccc(F)c(F)c1)CC(F)(F)F` (single isomer, unassigned) [172(A), N-(2-((5-(5-(difluoromethyl)-1,3,4-oxadiazol-2-yl)pyrimidin-2-yl)amino)-2-(3,4-difluorophenyl)ethyl)-N-(2,2,2-trifluoroethyl)methanesulfonamide], the values for the IC50 on HDAC6 and at HDAC1 were 320 nM and more than 30000 nM, respectively.

Consider `O=C(NCC(Nc1ncc(-c2nnc(C(F)F)o2)cn1)c1ccc(F)cc1)C(F)(F)F` (stereo not drawn) [Example 114, N-(2-((5-(5-(difluoromethyl)-1,3,4-oxadiazol-2-yl)pyrimidin-2-yl)amino)-2-(4-fluorophenyl)ethyl)-2,2,2-trifluoroacetamide], for which the IC50 at HDAC6 is 50 nM; at HDAC1, more than 30000 nM.

For the compound `Fc1ccccc1C1(Nc2ncc(-c3nnc(C(F)F)o3)cn2)CC1` [Example 56, 5-(5-(difluoromethyl)-1,3,4-oxadiazol-2-yl)-N-(1-(2-fluorophenyl)cyclopropyl)pyrimidin-2-amine], the IC50 was 6 nM at HDAC6 and more than 100000 nM on HDAC1.

Consider `CS(=O)(=O)N(CC(Nc1ncc(-c2nnc(C(F)F)o2)cn1)c1ccc(F)c(F)c1)CC(F)(F)F` (single isomer, unassigned) [172(B), N-(2-((5-(5-(difluoromethyl)-1,3,4-oxadiazol-2-yl)pyrimidin-2-yl)amino)-2-(3,4-difluorophenyl)ethyl)-N-(2,2,2-trifluoroethyl)methanesulfonamide], for which the IC50 on HDAC6 is 86 nM; at HDAC1 it was more than 30000 nM.

In the case of `Fc1cc(OC(F)(F)F)ccc1C1(Nc2ncc(-c3nnc(C(F)F)o3)cn2)CC1` [Example 70, 5-(5-(difluoromethyl)-1,3,4-oxadiazol-2-yl)-N-(1-(2-fluoro-4-(trifluoromethoxy)phenyl)cyclopropyl)pyrimidin-2-amine], the IC50 on HDAC6 is 100 nM; at HDAC1, more than 30000 nM.

As to `FC(F)c1nnc(-c2cnc(NC(c3ccccc3)c3ccccc3)nc2)o1` [Example 7, N-benzhydryl-5-(5-(difluoromethyl)-1,3,4-oxadiazol-2-yl)pyrimidin-2-amine], the IC50 at HDAC6 was 1700 nM; on HDAC1, more than 30000 nM.

Take `CC(C)C1(Nc2ncc(-c3nnc(C(F)F)o3)cn2)CC1` [Example 28, 5-(5-(difluoromethyl)-1,3,4-oxadiazol-2-yl)-N-(1-isopropylcyclopropyl)pyrimidin-2-amine]: the IC50 on HDAC6 was 610 nM; on HDAC1, more than 30000 nM.

As for `COc1ccccc1C1(Nc2ncc(-c3nnc(C(F)F)o3)cn2)CC1` [Example 46, 5-(5-(difluoromethyl)-1,3,4-oxadiazol-2-yl)-N-(1-(2-methoxyphenyl)cyclopropyl)pyrimidin-2-amine], the IC50 was 23 nM at HDAC6 and more than 30000 nM on HDAC1.

As for `CS(=O)(=O)Nc1cccc(C(Nc2ncc(-c3nnc(C(F)F)o3)cn2)c2ccc(F)cc2)c1` (stereo not drawn) [Example 128, N-(3-(((5-(5-(difluoromethyl)-1,3,4-oxadiazol-2-yl)pyrimidin-2-yl)amino)(4-fluorophenyl)methyl)phenyl)methanesulfonamide], the IC50 was 130 nM on HDAC6 and more than 30000 nM on HDAC1.

Take `CC(C)C(Nc1ncc(-c2nnc(C(F)F)o2)cn1)c1ccc(F)cc1` (stereo not drawn) [Example 24, 5-(5-(difluoromethyl)-1,3,4-oxadiazol-2-yl)-N-(1-(4-fluorophenyl)-2-methylpropyl)pyrimidin-2-amine]: the IC50 on HDAC6 is 95 nM; at HDAC1, more than 30000 nM.

`FC(F)c1nnc(-c2cnc(NC3(C4CCCCC4)CC3)nc2)o1` [Example 27, N-(1-cyclohexylcyclopropyl)-5-(5-(difluoromethyl)-1,3,4-oxadiazol-2-yl)pyrimidin-2-amine]: the IC50 was 74 nM on HDAC6 and more than 30000 nM on HDAC1.

As for `Fc1cc(Cl)ccc1C1(Nc2ncc(-c3nnc(C(F)F)o3)cn2)CC1` [Example 66], the IC50 is 42 nM at HDAC6 and more than 30000 nM at HDAC1.

Consider `FC(F)c1nnc(-c2cnc(NC3(c4ccccc4C(F)(F)F)CC3)nc2)o1` [Example 58, 5-(5-(difluoromethyl)-1,3,4-oxadiazol-2-yl)-N-(1-(2-(trifluoromethyl)phenyl)cyclopropyl) pyrimidin-2-amine], for which the results for the IC50 on HDAC6 and on HDAC1 were 40 nM and more than 30000 nM, respectively.

Turning to `CCS(=O)(=O)N(C)CC(Nc1ncc(-c2nnc(C(F)F)o2)cn1)c1ccc(OC(F)F)cc1F` (stereo not drawn) [148(+), N-(2-(4-(difluoromethoxy)-2-fluorophenyl)-2-((5-(5-(difluoromethyl)-1,3,4-oxadiazol-2-yl)pyrimidin-2-yl)amino)ethyl)-N-methylethanesulfonamide], the results for the IC50 on HDAC6 and on HDAC1 were 19 nM and more than 30000 nM, respectively.

`CS(=O)(=O)N(CC(Nc1ncc(-c2nnc(C(F)F)o2)cn1)c1ccc(Cl)cc1)CC(F)(F)F` (single isomer, unassigned) [174(−), N-(2-(4-chlorophenyl)-2-((5-(5-(difluoromethyl)-1,3,4-oxadiazol-2-yl)pyrimidin-2-yl)amino)ethyl)-N-(2,2,2-trifluoroethyl)methanesulfonamide]: the IC50 at HDAC6 was 110 nM; on HDAC1, more than 30000 nM.

Take `CCS(=O)(=O)N(CC(Nc1ncc(-c2nnc(C(F)F)o2)cn1)c1ccc(OC(F)F)cc1F)CC(F)(F)F` (stereo not drawn) [149(+), N-(2-(4-(difluoromethoxy)-2-fluorophenyl)-2-((5-(5-(difluoromethyl)-1,3,4-oxadiazol-2-yl)pyrimidin-2-yl)amino)ethyl)-N-(2,2,2-trifluoroethyl)ethanesulfonamide]: the IC50 on HDAC6 was 200 nM; at HDAC1 it was more than 30000 nM.

With `Fc1ccc(C(Cn2cnc(C(F)(F)F)c2)Nc2ncc(-c3nnc(C(F)F)o3)cn2)cc1` (single isomer, unassigned) [175(+), 5-(5-(difluoromethyl)-1,3,4-oxadiazol-2-yl)-N-(1-(4-fluorophenyl)-2-(4-(trifluoromethyl)-1H-imidazol-1-yl)ethyl)pyrimidin-2-amine], the IC50 was 160 nM at HDAC6 and more than 30000 nM on HDAC1.

In the case of `COCC(Nc1ncc(-c2nnc(C(F)F)o2)cn1)c1ccc(F)cc1` (stereo not drawn) [Example 21, 5-(5-(difluoromethyl)-1,3,4-oxadiazol-2-yl)-N-(1-(4-fluorophenyl)-2-methoxyethyl)pyrimidin-2-amine], the IC50 on HDAC6 was 77 nM; on HDAC1 it was more than 30000 nM.

For orientation: IC50 means the concentration that gives 50% inhibition.

Values taken from patent US10357493B2, “Metalloenzyme inhibitor compounds” (Selenity Therapeutics (Bermuda), Ltd., priority 2017, dated 2019).
